Here are results for 7 cell lines from the supplement of paper PMC10307832.

Common to all, as to assay: relative viability (nuclei count vs DMSO), 5 days (fraction); higher = more cells survive
Compound in one test: CC[C@H](CO)Nc1nc(NCc2ccccc2)c2ncn(C(C)C)c2n1 [Seliciclib]
Summed up:
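Hoechst staining, done together with fixation and permeabilisation, marked nuclei for 4× imaging and MetaXpress counting. This followed 5 days without medium change after lung cancer cell lines, kept overnight at 37 °C in 1536-well plates, were pinned with five library-drug doses (not always all listed) spaced by √10 on vehicle-anchored plates. Viability is the ratio of treated-well to vehicle-well nuclei, expressed as a median across plates. Plates passed only at control CV below 25% with at least one doubling.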

Compound in the test “Seliciclib + Trametinib”: CC[C@H](CO)Nc1nc(NCc2ccccc2)c2ncn(C(C)C)c2n1 [Seliciclib] + CC(=O)Nc1cccc(-n2c(=O)n(C3CC3)c(=O)c3c(Nc4ccc(I)cc4F)n(C)c(=O)c(C)c32)c1 [Trametinib] (partner 0.02 µM)
The method in brief:
(§1)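 The day after seeding in 1536-well plates, lung cancer cell lines were treated by pin tool with a single drug, or with a fixed anchor-drug dose together with five library-drug doses (not always all listed) in √10 steps. After 5 days, a combined fix-and-stain solution (final 0.05% Triton X-100, 1% formaldehyde, 1 ug/ml Hoechst) was added. Nuclei counted on 4× images gave relative viability as treated counts over vehicle counts, reported as the median of duplicate plates.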

Compound in the test “Seliciclib + Tozasertib”: CC[C@H](CO)Nc1nc(NCc2ccccc2)c2ncn(C(C)C)c2n1 [Seliciclib] + Cc1cc(Nc2cc(N3CCN(C)CC3)nc(Sc3ccc(NC(=O)C4CC4)cc3)n2)n[nH]1 [Tozasertib] (partner 0.1 µM)
The method in brief:
as §1

Compound in the test “Seliciclib + AZD7762”: CC[C@H](CO)Nc1nc(NCc2ccccc2)c2ncn(C(C)C)c2n1 [Seliciclib] + NC(=O)Nc1cc(-c2cccc(F)c2)sc1C(=O)N[C@H]1CCCNC1 [AZD7762] (partner 0.2 µM)
Summed up:
as §1

Take NCI-H647: the relative viability with Seliciclib (0.08 µM) came out at 0.971; with Seliciclib (0.253 µM), 0.836; in the test with Seliciclib (0.8 µM), 1.03; with Seliciclib (2.53 µM), 0.939; in the test with Seliciclib (8 µM), 0.754; with Seliciclib + Trametinib (first compound 0.08 µM) it was 0.392. Also, the relative viability with Seliciclib + Trametinib (first compound 0.253 µM) is 0.37; with Seliciclib + Trametinib (first compound 0.8 µM) it was 0.427; with Seliciclib + Trametinib (first compound 2.53 µM), 0.512; with Seliciclib + Trametinib (first compound 8 µM), 0.508; in the test with Seliciclib + Tozasertib (first compound 0.08 µM), 0.278; with Seliciclib + Tozasertib (first compound 0.8 µM), 0.262. For the same cell line, the relative viability with Seliciclib + Tozasertib (first compound 2.53 µM) stood at 0.348; with Seliciclib + Tozasertib (first compound 8 µM), 0.303; with Seliciclib + AZD7762 (first compound 0.08 µM), 0.676; with Seliciclib + AZD7762 (first compound 0.253 µM) it was 0.554; with Seliciclib + AZD7762 (first compound 0.8 µM), 0.496; in the test with Seliciclib + AZD7762 (first compound 2.53 µM), 0.554. Besides, in the test with Seliciclib + AZD7762 (first compound 8 µM), the relative viability stood at 0.48.
For the cell line NCI-H1651, the relative viability with Seliciclib (0.08 µM) worked out at 1.01; with Seliciclib (0.253 µM) it was 0.974; with Seliciclib (0.8 µM), 0.958; with Seliciclib (2.53 µM) it was 0.895; in the test with Seliciclib (8 µM), 0.906; with Seliciclib + Trametinib (first compound 0.08 µM), 0.732. For the same cell line, the relative viability came out at 0.783 in the test with Seliciclib + Trametinib (first compound 0.253 µM); 0.796 with Seliciclib + Trametinib (first compound 0.8 µM); 0.793 with Seliciclib + Trametinib (first compound 2.53 µM); 0.796 with Seliciclib + Trametinib (first compound 8 µM); 0.664 with Seliciclib + Tozasertib (first compound 0.08 µM); 0.623 with Seliciclib + Tozasertib (first compound 0.253 µM). For the same cell line, the relative viability in the test with Seliciclib + Tozasertib (first compound 0.8 µM) was 0.652; with Seliciclib + Tozasertib (first compound 2.53 µM), 0.778; in the test with Seliciclib + Tozasertib (first compound 8 µM) it was 0.542; in the test with Seliciclib + AZD7762 (first compound 0.08 µM), 0.474; with Seliciclib + AZD7762 (first compound 0.253 µM), 0.464; with Seliciclib + AZD7762 (first compound 0.8 µM) it was 0.488. In addition, the relative viability in the test with Seliciclib + AZD7762 (first compound 2.53 µM) was 0.504; in the test with Seliciclib + AZD7762 (first compound 8 µM), 0.673.
For NCI-H1734, the relative viability amounted to 1.02 in the test with Seliciclib (0.08 µM); 0.802 with Seliciclib (0.253 µM); 1.04 in the test with Seliciclib (0.8 µM); 0.812 in the test with Seliciclib (2.53 µM); 0.741 with Seliciclib (8 µM); 0.717 in the test with Seliciclib + Trametinib (first compound 0.08 µM). Also, the relative viability with Seliciclib + Trametinib (first compound 0.253 µM) is 0.528; in the test with Seliciclib + Trametinib (first compound 0.8 µM) it was 0.677; with Seliciclib + Trametinib (first compound 2.53 µM), 0.664; in the test with Seliciclib + Trametinib (first compound 8 µM), 0.572; with Seliciclib + Tozasertib (first compound 0.08 µM), 0.269; with Seliciclib + Tozasertib (first compound 0.253 µM), 0.245. Also, the relative viability turned out to be 0.277 with Seliciclib + Tozasertib (first compound 0.8 µM); 0.247 in the test with Seliciclib + Tozasertib (first compound 2.53 µM); 0.257 with Seliciclib + Tozasertib (first compound 8 µM); 0.533 with Seliciclib + AZD7762 (first compound 0.08 µM); 0.43 in the test with Seliciclib + AZD7762 (first compound 0.253 µM); 0.584 in the test with Seliciclib + AZD7762 (first compound 0.8 µM). The relative viability with Seliciclib + AZD7762 (first compound 2.53 µM) stood at 0.561; with Seliciclib + AZD7762 (first compound 8 µM) it was 0.642.
With NCI-H3122, the relative viability in the test with Seliciclib (0.08 µM) came out at 0.994; in the test with Seliciclib (0.253 µM) it was 0.947; with Seliciclib (0.8 µM), 0.883; with Seliciclib (2.53 µM), 0.983; with Seliciclib (8 µM), 0.894; in the test with Seliciclib + Trametinib (first compound 0.08 µM), 0.225. For the same cell line, the relative viability amounted to 0.136 in the test with Seliciclib + Trametinib (first compound 0.253 µM); 0.234 in the test with Seliciclib + Trametinib (first compound 0.8 µM); 0.211 with Seliciclib + Trametinib (first compound 2.53 µM); 0.221 in the test with Seliciclib + Trametinib (first compound 8 µM); 0.428 with Seliciclib + Tozasertib (first compound 0.08 µM); 0.347 in the test with Seliciclib + Tozasertib (first compound 0.253 µM). For the same cell line, the relative viability in the test with Seliciclib + Tozasertib (first compound 0.8 µM) amounted to 0.393; with Seliciclib + Tozasertib (first compound 2.53 µM) it was 0.378; in the test with Seliciclib + Tozasertib (first compound 8 µM), 0.329; with Seliciclib + AZD7762 (first compound 0.08 µM) it was 0.935; with Seliciclib + AZD7762 (first compound 0.253 µM) it was 0.939; with Seliciclib + AZD7762 (first compound 0.8 µM), 0.915. Moreover, the figures for the relative viability with Seliciclib + AZD7762 (first compound 2.53 µM) and in the test with Seliciclib + AZD7762 (first compound 8 µM) were 0.959 and 0.897, respectively.
CAL-12T: the relative viability came out at 0.986 with Seliciclib (0.08 µM); 1.11 with Seliciclib (0.253 µM); 0.922 with Seliciclib (0.8 µM); 0.934 in the test with Seliciclib (2.53 µM); 0.641 with Seliciclib (8 µM); 0.367 in the test with Seliciclib + Trametinib (first compound 0.08 µM). For the same cell line, the relative viability with Seliciclib + Trametinib (first compound 0.253 µM) turned out to be 0.337; in the test with Seliciclib + Trametinib (first compound 0.8 µM) it was 0.324; in the test with Seliciclib + Trametinib (first compound 2.53 µM) it was 0.257; in the test with Seliciclib + Trametinib (first compound 8 µM) it was 0.2; with Seliciclib + Tozasertib (first compound 0.08 µM) it was 0.297; in the test with Seliciclib + Tozasertib (first compound 0.253 µM), 0.313. The relative viability amounted to 0.294 with Seliciclib + Tozasertib (first compound 0.8 µM); 0.247 with Seliciclib + Tozasertib (first compound 2.53 µM); 0.234 with Seliciclib + Tozasertib (first compound 8 µM); 0.509 with Seliciclib + AZD7762 (first compound 0.08 µM); 0.772 with Seliciclib + AZD7762 (first compound 0.253 µM); 0.71 with Seliciclib + AZD7762 (first compound 0.8 µM). For the same cell line, the figures for the relative viability in the test with Seliciclib + AZD7762 (first compound 2.53 µM) and in the test with Seliciclib + AZD7762 (first compound 8 µM) were 0.707 and 0.729, respectively.
As for HCC-78, the relative viability with Seliciclib (0.08 µM) was determined as 1; with Seliciclib (0.253 µM) it was 1.05; with Seliciclib (0.8 µM) it was 0.91; with Seliciclib (2.53 µM) it was 0.703; with Seliciclib (8 µM) it was 0.733; in the test with Seliciclib + Trametinib (first compound 0.08 µM), 0.737. Besides, the relative viability with Seliciclib + Trametinib (first compound 0.253 µM) is 0.94; with Seliciclib + Trametinib (first compound 0.8 µM) it was 0.746; with Seliciclib + Trametinib (first compound 2.53 µM) it was 0.83; in the test with Seliciclib + Trametinib (first compound 8 µM) it was 0.513; with Seliciclib + Tozasertib (first compound 0.08 µM) it was 0.367; in the test with Seliciclib + Tozasertib (first compound 0.253 µM) it was 0.405. Besides, the relative viability in the test with Seliciclib + Tozasertib (first compound 0.8 µM) came out at 0.411; in the test with Seliciclib + Tozasertib (first compound 2.53 µM) it was 0.39; with Seliciclib + Tozasertib (first compound 8 µM), 0.381; in the test with Seliciclib + AZD7762 (first compound 0.08 µM), 0.689; with Seliciclib + AZD7762 (first compound 0.253 µM), 0.66; with Seliciclib + AZD7762 (first compound 0.8 µM) it was 0.62. Also, the figures for the relative viability with Seliciclib + AZD7762 (first compound 2.53 µM) and with Seliciclib + AZD7762 (first compound 8 µM) were 0.525 and 0.51, respectively.
On to NCI-H2085, for which the relative viability worked out at 1.01 in the test with Seliciclib (0.08 µM); 1.04 with Seliciclib (0.253 µM); 1.01 with Seliciclib (0.8 µM); 0.961 in the test with Seliciclib (2.53 µM); 0.873 in the test with Seliciclib (8 µM); 0.509 with Seliciclib + Trametinib (first compound 0.08 µM). Also, the relative viability in the test with Seliciclib + Trametinib (first compound 0.253 µM) worked out at 0.475; with Seliciclib + Trametinib (first compound 0.8 µM) it was 0.513; with Seliciclib + Trametinib (first compound 2.53 µM), 0.41; in the test with Seliciclib + Trametinib (first compound 8 µM), 0.343; in the test with Seliciclib + Tozasertib (first compound 0.08 µM), 0.807; with Seliciclib + Tozasertib (first compound 0.253 µM), 0.96. For the same cell line, the relative viability in the test with Seliciclib + Tozasertib (first compound 0.8 µM) is 0.737; with Seliciclib + Tozasertib (first compound 2.53 µM), 0.619; with Seliciclib + Tozasertib (first compound 8 µM), 0.664; in the test with Seliciclib + AZD7762 (first compound 0.08 µM), 0.948; with Seliciclib + AZD7762 (first compound 0.253 µM) it was 0.962; in the test with Seliciclib + AZD7762 (first compound 0.8 µM), 0.998. Besides, the relative viability was 1.03 with Seliciclib + AZD7762 (first compound 2.53 µM) and 0.868 with Seliciclib + AZD7762 (first compound 8 µM).
